Results published in US20150087673A1, “METHODS FOR USING AND BIOMARKERS FOR AMPK-ACTIVATING COMPOUNDS” (RIGEL PHARMACEUTICALS, INC., priority 2013, published 2015).

Each compound was assayed on AMPK (assay: AMPK activation assay (enzyme-linked immunosorbent assay)).
Type: cell-based
Protocol: Compounds were assayed for their ability to activate AMPK using an enzyme-linked immunosorbent assay. Reagents and procedures for measuring AMPK activation are well known and kits for AMPK activation assays are commercially available.

| EC50 [nM] | Compound |
| --- | --- |
| < 500 | CS(=O)(=O)c1ccc(C(=O)C2CCN(C(=O)c3ccc(C(=O)Nc4ccc(Oc5ccc(F)cc5)nc4)nc3)CC2)cc1 [Compound 232, N-(6-(4-fluorophenoxy)pyridin-3-yl)-5-(4-(4-(methylsulfonyl)benzoyl)piperidine-1-carbonyl)picolinamide] |
| < 500 | CC(C)(c1ccccc1)N1CCN(C(=O)c2ccc(C(=O)NC3CCN(Cc4ccc(C#N)cc4)CC3)nc2)CC1 [Compound 133, N-(1-(4-cyanobenzyl)piperidin-4-yl)-5-(4-(2-phenylpropan-2-yl)piperazine-1-carbonyl)picolinamide] |
| 1000 to 5000 | N#Cc1ccc(CN2CCC(NC(=O)c3ccc(N4CCN(Cc5ccccc5)CC4)cn3)CC2)cc1 [Compound 110, 5-(4-benzylpiperazin-1-yl)-N-(1-(4-cyanobenzyl)piperidin-4-yl)picolinamide] |
| < 500 | CS(=O)(=O)c1ccc(OC2CCN(C(=O)c3ccc(C(=O)NC4CCN(Cc5ccc(F)cc5)CC4)nc3)CC2)cc1 [Compound 226, N-(1-(4-fluorobenzyl)piperidin-4-yl)-5-(4-(4-(methylsulfonyl)phenoxy)piperidine-1-carbonyl)picolinamide] |
| < 500 | COc1ccc(CN2CCC(NC(=O)c3ccc(C(=O)N4CCC(Oc5ccc(C(=O)C6CC6)cc5)CC4)nc3)CC2)cc1 [Compound 458, 6-(4-(4-(cyclopropanecarbonyl)phenoxy)piperidine-1-carbonyl)-N-(1-(4-methoxybenzyl)piperidin-4-yl)nicotinamide] |
| < 500 | N#Cc1ccc(CN2CCC(NC(=O)c3ccc(C(=O)N4CCC(F)(C(=O)c5ccc(F)cc5)CC4)cn3)CC2)cc1 [Compound 68, N-(1-(4-cyanobenzyl)piperidin-4-yl)-5-(4-(4-fluoro-4-fluorobenzoyl)piperidine-1-carbonyl)picolinamide] |
| < 500 | O=C(NC1CCN(Cc2ccc(Cl)cc2)CC1)c1ccc(C(=O)N2CCN(Cc3ccc(F)cc3)CC2)cn1 [Compound 52] |
| < 500 | CC(=O)c1ccc(Oc2ccc(NC(=O)c3ccc(C(=O)N4CCC(Oc5ccc(S(=O)(=O)C6CC6)cc5)CC4)nc3)cn2)cc1 [Compound 486, N-(6-(4-acetylphenoxy)pyridin-3-yl)-6-(4-(4-(cyclopropylsulfonyl)phenoxy)piperidine-1-carbonyl)nicotinamide] |
| < 500 | N#Cc1ccc(OC2CCN(C(=O)c3ccc(C(=O)NC4CCN(Cc5ccc(N6CCOCC6)cc5)CC4)cn3)CC2)cc1 [Compound 337, 6-(4-(4-cyanophenoxy)piperidine-1-carbonyl)-N-(1-(4-morpholinobenzyl)piperidin-4-yl)nicotinamide] |
| 500 to 1000 | CS(=O)(=O)c1ccc(C(=O)C2CCN(C(=O)c3ccc(C(=O)N[C@@H]4CCN(Cc5ccc(OC(F)(F)F)cc5)C[C@H]4F)nc3)CC2)cc1 (relative stereo) [Compound 253, N-((trans)-3-fluoro-1-(4-(trifluoromethoxy)benzyl)piperidin-4-yl)-5-(4-(4-(methylsulfonyl)benzoyl)piperidine-1-carbonyl)picolinamide] |
| < 500 | CC(=O)Nc1ccc(OC2CCN(C(=O)c3ccc(C(=O)Nc4ccc(Oc5ccc(F)cc5)nc4)nc3)CC2)cc1 [Compound 408, 5-(4-(4-acetamidophenoxy)piperidine-1-carbonyl)-N-(6-(4-fluorophenoxy)pyridin-3-yl)picolinamide] |
| < 500 | N#Cc1ccc(O[C@H]2CC[C@H](NC(=O)c3ccc(C(=O)N4CCC(C(=O)c5ccc(F)cc5)CC4)cn3)CC2)cc1 [Compound 168, N-((trans)-4-(4-cyanophenoxy)cyclohexyl)-5-(4-(4-fluorobenzoyl)piperidine-1-carbonyl)picolinamide] |
| < 500 | COc1ccc(C(=O)C2CCN(C(=O)c3ccc(C(=O)N[C@H]4CC[C@@H](Oc5ccc(C#N)cc5)CC4)nc3)CC2)cc1 [Compound 171, N-((cis)-4-(4-cyanophenoxy)cyclohexyl)-5-(4-(4-methoxybenzoyl)piperidine-1-carbonyl)picolinamide] |
| < 500 | COc1cccc(CN2CCC(NC(=O)c3ccc(C(=O)N4CCC(Oc5ccc(S(C)(=O)=O)cc5)CC4)cn3)CC2)c1 [Compound 241, N-(1-(3-methoxybenzyl)piperidin-4-yl)-5-(4-(4-(methylsulfonyl)phenoxy)piperidine-1-carbonyl)picolinamide] |
| 500 to 1000 | CC(C)(C)OC(=O)NCC#Cc1cc(C(=O)N2CCN(Cc3ccc(F)cc3)CC2)cnc1C(=O)NC1CCN(Cc2ccc(C#N)cc2)CC1 [Compound 164, tert-butyl 3-(2-(1-(4-cyanobenzyl)piperidin-4-ylcarbamoyl)-5-(4-(4-fluorobenzyl)piperazine-1-carbonyl)pyridin-3-yl)prop-2-ynylcarbamate] |
| 500 to 1000 | CC(=O)Nc1cccc(OC2CCN(C(=O)c3ccc(C(=O)NC4CCN(Cc5cccc(OC(F)(F)F)c5)CC4)cn3)CC2)c1 [Compound 429, 6-(4-(3-acetamidophenoxy)piperidine-1-carbonyl)-N-(1-(3-(trifluoromethoxy)benzyl)piperidin-4-yl)nicotinamide] |

| EC50 [nM] | Compound |
| --- | --- |
| < 500 | N#Cc1ccc(CN2CCC(NC(=O)c3ccc(N4CCC(Oc5ccc(C(F)(F)F)cc5)CC4)nn3)CC2)cc1 [Compound 361, N-(1-(4-cyanobenzyl)piperidin-4-yl)-6-(4-(4-(trifluoromethyl)phenoxy)piperidin-1-yl)pyridazine-3-carboxamide] |
| < 500 | CS(=O)(=O)c1ccc(OC2CCN(C(=O)c3ccc(C(=O)NC4CCC(Oc5ccc(C#N)cc5)CC4)cn3)CC2)cc1 (centres unmarked) [Compound 398, N-(4-(4-cyanophenoxy)cyclohexyl)-6-(4-(4-(methylsulfonyl)phenoxy)piperidine-1-carbonyl)nicotinamide] |
| 1000 to 5000 | N#Cc1ccc(CN2CCC3(CCN(C(=O)c4ccc(C(=O)N5CCN(Cc6ccc(F)cc6)CC5)cn4)CC3)C2)cc1 [Compound 15, 4-((8-(5-(4-(4-fluorobenzyl)piperazine-1-carbonyl)picolinoyl)-2,8-diazaspiro[4.5]decan-2-yl)methyl)benzonitrile] |
| < 500 | O=C(NC1CCN(Cc2ccc(N3CCCC3)cc2)CC1)c1ccc(C(=O)N2CCC(Oc3ccc(F)cc3)CC2)cn1 [Compound 196, 5-(4-(4-fluorophenoxy)piperidine-1-carbonyl)-N-(1-(4-(pyrrolidin-1-yl)benzyl)piperidin-4-yl)picolinamide] |
| < 500 | N#Cc1ccc(CN2CCC(NC(=O)c3ccc(C(=O)N4CCCC(Oc5ccc(C#N)cc5)C4)cn3)CC2)cc1 (centres unmarked) [Compound 137, N-(1-(4-cyanobenzyl)piperidin-4-yl)-5-(3-(4-cyanophenoxy)piperidine-1-carbonyl)picolinamide] |
| < 500 | COc1ccc(Oc2ccc(NC(=O)c3ccc(C(=O)N4CCN(Cc5ccc(F)cc5)CC4)cn3)cc2)cc1 [Compound 54, 5-(4-(4-fluorobenzyl)piperazine-1-carbonyl)-N-(4-(4-methoxyphenoxy)phenyl)picolinamide] |
| < 500 | O=C(N[C@H]1CC[C@@H](Oc2ccc(F)cc2)CC1)c1ccc(C(=O)N2CCC(Oc3ccc(F)cc3)CC2)cn1 [Compound 312, N-((cis)-4-(4-fluorophenoxy)cyclohexyl)-5-(4-(4-fluorophenoxy)piperidine-1-carbonyl)picolinamide] |
| < 500 | O=C(Nc1ccc(Oc2ccc(F)cc2)nc1)c1ccc(C(=O)N2CCC(C(=O)c3ccc(F)cc3F)CC2)nc1 [Compound 348, 6-(4-(2,4-difluorobenzoyl)piperidine-1-carbonyl)-N-(6-(4-fluorophenoxy)pyridin-3-yl)nicotinamide] |
| 1000 to 5000 | COc1ccc(CN2CCC(NC(=O)c3ccc(C(=O)N4CCC(S(=O)(=O)c5ccc(F)cc5)CC4)nc3)CC2)cc1 [Compound 474, 6-(4-(4-fluorophenylsulfonyl)piperidine-1-carbonyl)-N-(1-(4-methoxybenzyl)piperidin-4-yl)nicotinamide] |
| < 500 | CC(=O)c1ccc(OC2CCN(C(=O)c3ccc(C(=O)NC4CCC(Oc5ccc(C#N)cc5)CC4)cn3)CC2)cc1 (centres unmarked) [Compound 402, 6-(4-(4-acetylphenoxy)piperidine-1-carbonyl)-N-(4-(4-cyanophenoxy)cyclohexyl)nicotinamide] |
| < 500 | COc1ccc(CN2CCC(NC(=O)c3ccc(C(=O)N4CCC(Oc5cccc(NC(=O)C6CC6)c5)CC4)nc3)CC2)cc1 [Compound 435, 6-(4-(3-(cyclopropanecarboxamido)phenoxy)piperidine-1-carbonyl)-N-(1-(4-methoxybenzyl)piperidin-4-yl)nicotinamide] |
| < 500 | N#Cc1ccc(O[C@H]2CC[C@@H](NC(=O)c3ccc(C(=O)N4CCC(C(=O)c5ccc(N6CCCC6)cc5)CC4)nc3)CC2)cc1 [Compound 442, N-((cis)-4-(4-cyanophenoxy)cyclohexyl)-6-(4-(4-(pyrrolidin-1-yl)benzoyl)piperidine-1-carbonyl)nicotinamide] |
| < 500 | COc1ccc(C(=O)C2CCN(C(=O)c3ccc(C(=O)NC4CCN(Cc5ccc(C#N)cc5)CC4)nn3)CC2)cc1 [Compound 387, N-(1-(4-cyanobenzyl)piperidin-4-yl)-6-(4-(4-methoxybenzoyl)piperidine-1-carbonyl)pyridazine-3-carboxamide] |
| < 500 | O=C(NC1CCN(Cc2cc(F)cc(F)c2)CC1)c1ccc(C(=O)N2CCC(Oc3ccc(C(F)(F)F)cc3)CC2)cn1 [Compound 294, N-(1-(3,5-difluorobenzyl)piperidin-4-yl)-5-(4-(4-(trifluoromethyl)phenoxy)piperidine-1-carbonyl)picolinamide] |
| 1000 to 5000 | COc1cccc(CN2CCC(NC(=O)c3ccc(C(=O)N4CCC(S(=O)(=O)c5ccc(F)cc5)CC4)nc3)CC2)c1 [Compound 475, 6-(4-(4-fluorophenylsulfonyl)piperidine-1-carbonyl)-N-(1-(3-methoxybenzyl)piperidin-4-yl)nicotinamide] |
| < 500 | N#Cc1ccc(CN2CCC(NC(=O)c3ccc(C(=O)N4CCC(C(=O)c5ccc(F)c(F)c5)CC4)cn3)CC2)cc1 [Compound 281, N-(1-(4-cyanobenzyl)piperidin-4-yl)-5-(4-(3,4-difluorobenzoyl)piperidine-1-carbonyl)picolinamide] |
